{"source": "patent US20260262643A1", "about": "“HERBICIDAL BENZOXAZINES” (FMC CORPORATION, priority 2022, published 2026)", "key": {"ducksalad": {"system": "ducksalad", "test": "Test D flooded paddy test", "format": "in vivo, Heteranthera limosa", "settings": "250 g ai/ha, applied to paddy water, visual rating after 13 to 14 days, scale 0 to 100 (0 no effect, 100 complete control)", "method_in_brief": "(§1)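 Plants grown to the 2-leaf stage; pots flooded to 3 cm above soil at treatment and held at that depth throughout. Test compounds applied directly to the paddy water. After 13 to 14 days in a greenhouse, response was rated visually versus controls on a 0 (no effect) to 100 (complete control) scale.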"}, "blackgrass [1]": {"system": "blackgrass", "test": "Test C preemergence", "format": "in vivo, Alopecurus myosuroides", "method_in_brief": "(§2)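 Soil-applied (pre) and foliar (post, 1–2 leaf, 2–10 cm) sprays; surfactant-containing non-phytotoxic solvent vehicle; loam/sand substrate. Readout: visual % control at 10 d, greenhouse, versus untreated.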"}, "green foxtail [2]": {"system": "green foxtail", "test": "Test C postemergence", "format": "in vivo, Setaria viridis", "settings": "10 days, 0 to 100 scale (0 no effect, 100 complete control)", "method_in_brief": "as §2"}, "corn [3]": {"system": "corn", "test": "Test C postemergence", "format": "in vivo, Zea mays", "settings": "10 days, 0 to 100 scale (0 no effect, 100 complete control)", "method_in_brief": "as §2"}, "wheat [4]": {"system": "wheat", "test": "Test C postemergence", "format": "in vivo, Triticum aestivum", "settings": "10 days, 0 to 100 scale (0 no effect, 100 complete control)", "method_in_brief": "as §2"}, "soybean [5]": {"system": "soybean", "test": "Test C preemergence", "format": "in vivo, Glycine max", "method_in_brief": "as §2"}, "ragweed [6]": {"system": "ragweed", "test": "Test C preemergence", "format": "in vivo, Ambrosia artemisiifolia", "method_in_brief": "as §2"}, "rice": {"system": "rice", "test": "Test D flooded paddy test", "format": "in vivo, Oryza sativa", "settings": "250 g ai/ha, applied to paddy water, visual rating after 13 to 14 days, scale 0 to 100 (0 no effect, 100 complete control)", "method_in_brief": "as §1"}, "wheat [7]": {"system": "wheat", "test": "Test C preemergence", "format": "in vivo, Triticum aestivum", "method_in_brief": "as §2"}, "oat, wild [8]": {"system": "oat, wild", "test": "Test C postemergence", "format": "in vivo, Avena fatua", "settings": "10 days, 0 to 100 scale (0 no effect, 100 complete control)", "method_in_brief": "as §2"}, "barnyardgrass [9]": {"system": "barnyardgrass", "test": "Test D flooded paddy test", "format": "in vivo, Echinochloa crus-galli", "settings": "250 g ai/ha, applied to paddy water, visual rating after 13 to 14 days, scale 0 to 100 (0 no effect, 100 complete control)", "method_in_brief": "as §1"}, "barnyardgrass [10]": {"system": "barnyardgrass", "test": "Test C postemergence", "format": "in vivo, Echinochloa crusgalli", "settings": "10 days, 0 to 100 scale (0 no effect, 100 complete control)", "method_in_brief": "as §2"}, "sedge, umbrella": {"system": "sedge, umbrella", "test": "Test D flooded paddy test", "format": "in vivo, Cyperus difformis", "settings": "250 g ai/ha, applied to paddy water, visual rating after 13 to 14 days, scale 0 to 100 (0 no effect, 100 complete control)", "method_in_brief": "as §1"}, "soybean [11]": {"system": "soybean", "test": "Test C postemergence", "format": "in vivo, Glycine max", "settings": "10 days, 0 to 100 scale (0 no effect, 100 complete control)", "method_in_brief": "as §2"}, "corn [12]": {"system": "corn", "test": "Test C preemergence", "format": "in vivo, Zea mays", "method_in_brief": "as §2"}, "ragweed [13]": {"system": "ragweed", "test": "Test C postemergence", "format": "in vivo, Ambrosia artemisiifolia", "settings": "10 days, 0 to 100 scale (0 no effect, 100 complete control)", "method_in_brief": "as §2"}, "horseweed": {"system": "horseweed", "test": "Test C postemergence", "format": "in vivo, Erigeron canadensis", "settings": "10 days, 0 to 100 scale (0 no effect, 100 complete control)", "method_in_brief": "as §2"}, "oat, wild [14]": {"system": "oat, wild", "test": "Test C preemergence", "format": "in vivo, Avena fatua", "method_in_brief": "as §2"}, "kochia [15]": {"system": "kochia", "test": "Test C preemergence", "format": "in vivo, Bassia scoparia", "method_in_brief": "as §2"}, "blackgrass [16]": {"system": "blackgrass", "test": "Test C postemergence", "format": "in vivo, Alopecurus myosuroides", "settings": "10 days, 0 to 100 scale (0 no effect, 100 complete control)", "method_in_brief": "as §2"}, "pigweed, palmer [17]": {"system": "pigweed, palmer", "test": "Test C postemergence", "format": "in vivo, Amaranthus palmeri", "settings": "10 days, 0 to 100 scale (0 no effect, 100 complete control)", "method_in_brief": "as §2"}, "kochia [18]": {"system": "kochia", "test": "Test C postemergence", "format": "in vivo, Bassia scoparia", "settings": "10 days, 0 to 100 scale (0 no effect, 100 complete control)", "method_in_brief": "as §2"}, "ryegrass, Italian [19]": {"system": "ryegrass, Italian", "test": "Test C postemergence", "format": "in vivo, Lolium multiflorum", "settings": "10 days, 0 to 100 scale (0 no effect, 100 complete control)", "method_in_brief": "as §2"}, "galium": {"system": "galium", "test": "Test C postemergence", "format": "in vivo, Galium aparine", "settings": "10 days, 0 to 100 scale (0 no effect, 100 complete control)", "method_in_brief": "as §2"}, "ryegrass, Italian [20]": {"system": "ryegrass, Italian", "test": "Test C preemergence", "format": "in vivo, Lolium multiflorum", "method_in_brief": "as §2"}, "barnyardgrass [21]": {"system": "barnyardgrass", "test": "Test C preemergence", "format": "in vivo, Echinochloa crusgalli", "method_in_brief": "as §2"}, "pigweed, palmer [22]": {"system": "pigweed, palmer", "test": "Test C preemergence", "format": "in vivo, Amaranthus palmeri", "method_in_brief": "as §2"}, "green foxtail [23]": {"system": "green foxtail", "test": "Test C preemergence", "format": "in vivo, Setaria viridis", "method_in_brief": "as §2"}, "[24]": {"settings": "500 g ai/ha, preemergence, 0 to 100 scale (0 no effect, 100 complete control)"}, "[25]": {"settings": "Preemergence, 125 g ai/ha, 0 to 100 scale, 0 no effect, 100 complete control"}}}
{"smiles": "CCOC[C@H]1CN(C(=O)c2cc(-n3cnc(C(C)(C)C)n3)cc3c2OCCO3)c2cccc(Cl)c2O1", "note": "[Compound 388]", "values": [{"measurement": "Plant response rating, Ducksalad (Flood)", "setting": "ducksalad", "result": 0}, {"measurement": "Blackgrass plant response rating", "setting": "blackgrass [1]; [24]", "result": 40}, {"measurement": "Plant response rating, Blackgrass", "setting": "blackgrass [1]; [25]", "result": 10}, {"measurement": "Plant response rating, Foxtail, Green", "setting": "green foxtail [2]; 500 g ai/ha, postemergence", "result": 90}, {"measurement": "Plant response rating, Foxtail, Green", "setting": "green foxtail [2]; Postemergence, 125 g ai/ha", "result": 10}, {"measurement": "Plant response rating, Corn", "setting": "corn [3]; 500 g ai/ha, postemergence", "result": 30}, {"measurement": "Plant response rating, Corn", "setting": "corn [3]; Postemergence, 125 g ai/ha", "result": 10}, {"measurement": "Plant response rating, Wheat", "setting": "wheat [4]; 500 g ai/ha, postemergence", "result": 10}, {"measurement": "Plant response rating, Wheat", "setting": "wheat [4]; Postemergence, 125 g ai/ha", "result": 10}, {"measurement": "Soybean plant response rating", "setting": "soybean [5]; [24]", "result": 90}, {"measurement": "Plant response rating, Soybean", "setting": "soybean [5]; [25]", "result": 90}, {"measurement": "Ragweed plant response rating", "setting": "ragweed [6]; [24]", "result": 60}, {"measurement": "Plant response rating, Ragweed", "setting": "ragweed [6]; [25]", "result": 60}, {"measurement": "Plant response rating, Rice (Flood)", "setting": "rice", "result": 0}, {"measurement": "Wheat plant response rating", "setting": "wheat [7]; [24]", "result": 20}, {"measurement": "Plant response rating, Wheat", "setting": "wheat [7]; [25]", "result": 20}, {"measurement": "Plant response rating, Oat, Wild", "setting": "oat, wild [8]; 500 g ai/ha, postemergence", "result": 40}, {"measurement": "Plant response rating, Oat, Wild", "setting": "oat, wild [8]; Postemergence, 125 g ai/ha", "result": 20}, {"measurement": "Plant response rating, Barnyardgrass (Flood)", "setting": "barnyardgrass [9]", "result": 0}, {"measurement": "Plant response rating, Barnyardgrass", "setting": "barnyardgrass [10]; 500 g ai/ha, postemergence", "result": 20}, {"measurement": "Plant response rating, Barnyardgrass", "setting": "barnyardgrass [10]; Postemergence, 125 g ai/ha", "result": 10}, {"measurement": "Plant response rating, Sedge, Umbrella (Flood)", "setting": "sedge, umbrella", "result": 0}, {"measurement": "Plant response rating, Soybean", "setting": "soybean [11]; 500 g ai/ha, postemergence", "result": 100}, {"measurement": "Plant response rating, Soybean", "setting": "soybean [11]; Postemergence, 125 g ai/ha", "result": 100}, {"measurement": "Corn plant response rating", "setting": "corn [12]; [24]", "result": 10}, {"measurement": "Plant response rating, Corn", "setting": "corn [12]; [25]", "result": ". 10"}, {"measurement": "Plant response rating, Ragweed", "setting": "ragweed [13]; 500 g ai/ha, postemergence", "result": 50}, {"measurement": "Plant response rating, Ragweed", "setting": "ragweed [13]; Postemergence, 125 g ai/ha", "result": 60}, {"measurement": "Plant response rating, Horseweed", "setting": "horseweed; 500 g ai/ha, postemergence", "result": 30}, {"measurement": "Plant response rating, Horseweed", "setting": "horseweed; Postemergence, 125 g ai/ha", "result": 0}, {"measurement": "Oat, Wild plant response rating", "setting": "oat, wild [14]; [24]", "result": 40}, {"measurement": "Plant response rating, Oat, Wild", "setting": "oat, wild [14]; [25]", "result": 20}, {"measurement": "Kochia plant response rating", "setting": "kochia [15]; [24]", "result": 100}, {"measurement": "Plant response rating, Kochia", "setting": "kochia [15]; [25]", "result": 40}, {"measurement": "Plant response rating, Blackgrass", "setting": "blackgrass [16]; 500 g ai/ha, postemergence", "result": 0}, {"measurement": "Plant response rating, Blackgrass", "setting": "blackgrass [16]; Postemergence, 125 g ai/ha", "result": 0}, {"measurement": "Plant response rating, Pigweed, Palmer", "setting": "pigweed, palmer [17]; 500 g ai/ha, postemergence", "result": 100}, {"measurement": "Plant response rating, Pigweed, Palmer", "setting": "pigweed, palmer [17]; Postemergence, 125 g ai/ha", "result": 100}, {"measurement": "Plant response rating, Kochia", "setting": "kochia [18]; 500 g ai/ha, postemergence", "result": 90}, {"measurement": "Plant response rating, Kochia", "setting": "kochia [18]; Postemergence, 125 g ai/ha", "result": 90}, {"measurement": "Plant response rating, Ryegrass, Italian", "setting": "ryegrass, Italian [19]; 500 g ai/ha, postemergence", "result": 30}, {"measurement": "Plant response rating, Ryegrass, Italian", "setting": "ryegrass, Italian [19]; Postemergence, 125 g ai/ha", "result": 20}, {"measurement": "Plant response rating, Galium", "setting": "galium; 500 g ai/ha, postemergence", "result": 100}, {"measurement": "Plant response rating, Galium", "setting": "galium; Postemergence, 125 g ai/ha", "result": 70}, {"measurement": "Ryegrass, Italian plant response rating", "setting": "ryegrass, Italian [20]; [24]", "result": 60}, {"measurement": "Plant response rating, Ryegrass, Italian", "setting": "ryegrass, Italian [20]; [25]", "result": 50}, {"measurement": "Barnyardgrass plant response rating", "setting": "barnyardgrass [21]; [24]", "result": 90}, {"measurement": "Plant response rating, Barnyardgrass", "setting": "barnyardgrass [21]; [25]", "result": 50}, {"measurement": "Pigweed, Palmer plant response rating", "setting": "pigweed, palmer [22]; [24]", "result": 100}, {"measurement": "Plant response rating, Pigweed, Palmer", "setting": "pigweed, palmer [22]; [25]", "result": 100}, {"measurement": "Foxtail, Green plant response rating", "setting": "green foxtail [23]; [24]", "result": 100}, {"measurement": "Plant response rating, Foxtail, Green", "setting": "green foxtail [23]; [25]", "result": 60}]}
